For series [1], the system named is S. mansoni. Description: antischistosomal activity in mice (live worm burden, single oral dose). Conditions: Schistosoma mansoni, single oral dose, read-out: % Reduction Live Worm Burden. It is filed as in vivo, S. mansoni (host: CD1 white female mice). How it is done: Tests were conducted to determine the antischistosomal activity in mice and monkeys. The results of the mice tests are reported in Tables 1 to 4 along with the chemical identifications of the compounds synthesized and tested.
The mice tests were conducted as follows:
A. Preinfection Procedures: Purina Laboratory chow (Ralston-Purina) and water were given ad libitum. All mice were housed in hanging stainless steel cages, without bedding, five per cage. They were kept in a ward with an ambient temperature of 75° F. and a relative humidity of 50-55%. Therapeutic treatment was given on Day 40 post-infection.
B. Experimental Procedures: CD1 white female mice were exposed by the tail immersion method for 30 minutes to 80 individually counted S. mansoni cercariae (WRAIR laboratory strain). The cercariae were obtained from pools of no less than 25 Biophalaria glabrata snails. Each experiment consisted of 118 mice divided into infected/water treated and infected/vehicle-treated controls, and infected/drug-treated groups (two dose levels) for six compounds. Groups of 12 mice each were treated with a compound synthesized and provided by the Warner-Lambert Company, Ann Arbor, Mich. at two dose levels. At the same time, five mice were sacrificed to establish worm burdens as infection controls. Three weeks after treatment, all remaining mice were sacrificed and perfused. Gross pathology (liver and intestines) was noted and graded (0 to +3). Worm burdens were determined and the sex of the worms recorded. Following perfusions the liver and intestines were removed and examined for the presence of […] or dead worms. […] Drugs were administered orally in Emulphor EL.
C. Drug Treatment: Treatment consisted of a single oral dose. Each drug was give initially at two dose levels, 40 mg/kg and 125 mg/kg, SID×1.
D. Criteria Used to Evaluate Therapeutic Effectiveness:
Evaluation of activity was determined by examination of the animals at 23 to 28 days after treatment. The schistosomes remaining alive after treatment were counted in the perfusates of the hepatic portal system and in press preparation of the livers. In the same preparations, the relative numbers of dead and/or encapsulated (i.e., worms may or may not be dead) parasites and the relative degree of pathology were ascertained. The efficacy of each treatment was that percentage of the control infection represented by the difference between numbers of parasites recovered from control (H2 O+vehicle) and treated animals. Thus, % efficacy is: [formula]

For series [2], the system named is Salmonella Typhimurium. Nature of the series: bacterial mutagenicity (Ames/Salmonella), five strains together. The class given is cell-based. To be noted: for bacterial mutagenicity: initial test. The protocol:
(§1) The tests were carried out as follows:
(§2) Four phenylpiperazine derivatives were selected and specially purified samples were prepared for testing as bacterial mutagens. The tests were conducted with five strains (TA98, TA100, TA1535, TA1537, and TA1538) of Salmonella Typhimurium. The compounds were the base of cpd. A (Table 6a), cpd. 28 (Table 2), cpd. 49 (Table 3), and cpd. 8 (Table 1). Hycanthone was used as a positive control drug.

The subject of series [3] is Salmonella Typhimurium TA100. Nature of the series: bacterial mutagenicity, strain TA100. It is filed as cell-based. Details: key: +: Positive Response; -: Negative Response; w+: Weak Positive Response. Conditions: with metabolic activation. The protocol:
as §1
as §2, with “drug. In the initial test, cpd. A base was nonmutagenic, confirming previous work using strains TA98 and TA100 with cpd. A. Cpd. 28 and cpd. […] In this initial test, cpd. […] Therefore, it was concluded that cpd. 49 is nonmutagenic in the Ames/Salmonella assay.” for “drug.”

Series [4] concerns Salmonella Typhimurium TA1537. Nature of the series: bacterial mutagenicity, strain TA1537. The class given is cell-based. Details: key: +: Positive Response; -: Negative Response; w+: Weak Positive Response. How it is done:
as §1
as §2, with “drug. In the initial test, cpd. A base was nonmutagenic, confirming previous work using strains TA98 and TA100 with cpd. A. Cpd. 28 and cpd. […] In this initial test, cpd. […] Therefore, it was concluded that cpd. 49 is nonmutagenic in the Ames/Salmonella assay.” for “drug.”

The test system of series [5] is Salmonella Typhimurium TA1535. Description: bacterial mutagenicity, strain TA1535. More on the design: key: +: Positive Response; -: Negative Response; w+: Weak Positive Response. It is filed as cell-based. Conditions: without metabolic activation. The protocol:
as §1
as §2, with “drug. In the initial test, cpd. A base was nonmutagenic, confirming previous work using strains TA98 and TA100 with cpd. A. Cpd. 28 and cpd. […] In this initial test, cpd. […] Therefore, it was concluded that cpd. 49 is nonmutagenic in the Ames/Salmonella assay.” for “drug.”

Series [6] concerns Salmonella Typhimurium TA98. Nature of the series: bacterial mutagenicity, strain TA98. The class given is cell-based. More on the design: key to Mutagenicity TA98: +: Positive Response; -: Negative Response; w+: Weak Positive Response. How it is done:
as §1
as §2, with “drug. In the initial test, cpd. A base was nonmutagenic, confirming previous work using strains TA98 and TA100 with cpd. A. Cpd. 28 and cpd. […] In this initial test, cpd. […] Therefore, it was concluded that cpd. 49 is nonmutagenic in the Ames/Salmonella assay.” for “drug.”

The subject of series [7] is Salmonella Typhimurium TA1538. Description: bacterial mutagenicity, strain TA1538. It is filed as cell-based. More on the design: key: +: Positive Response; -: Negative Response; w+: Weak Positive Response. The protocol: as §1
as §2, with “drug. In the initial test, cpd. A base was nonmutagenic, confirming previous work using strains TA98 and TA100 with cpd. A. Cpd. 28 and cpd. […] In this initial test, cpd. […] Therefore, it was concluded that cpd. 49 is nonmutagenic in the Ames/Salmonella assay.” for “drug.”

Experimental findings from US4515793A, “Phenylpiperazines which are useful in the treatment of schistosomiasis” (Edna McConnell Clark Foundation, priority 1983, dated 1985) are described below.

On to `O=C(CN1CCN(c2ccc(CO)c(Cl)c2)CC1)c1cc2ccccc2o1` [Cpd. 49, 2-[4-[3-Chloro-4-(hydroxymethyl)phenyl]-1-piperazinyl]-1-(2-benzofuranyl)-ethanone], for which, in series [1] (mice), the inhibition in vivo at 20 mg/kg amounted to 33%. The inhibition in vivo at 125 mg/kg in series [1] (125 mg/kg, mice) was 97%. The “bacterial mutagenicity, conclusion” value in series [2] (Ames/Salmonella assay, overall conclusion) is listed as “nonmutagenic”. Besides, the “bacterial mutagenicity” value in series [2] (other four strains (not TA98)) is reported as “nonmutagenic”; in series [6] (initial test, TA98 with microsomal activation) it was “weakly mutagenic”; in series [6] (second test, TA98, microsomal activation, additional concentrations 10-60 micrograms/ml) it was “did not confirm this mutagenicity”. In series [3], the “Mutagenicity TA100” value is reported as “-”. For the same compound, the “Mutagenicity TA1537” value in series [4] (with metabolic activation) and in series [4] (without metabolic activation) was “-” each time. For the same compound, the “Mutagenicity TA1535” value in series [5] is reported as “-”. The “Mutagenicity TA98” value in series [6] (with metabolic activation) is “+”; in series [6] (without metabolic activation), “-”. Further, the “Mutagenicity TA1538” value in series [7] (with metabolic activation) and in series [7] (without metabolic activation) was “-” each time.

For the compound `O=C(CCN1CCN(c2ccc(CO)c(Cl)c2)CC1)c1ccc(Cl)cc1` [Cpd. 28, 3-[4-[3-Chloro-4-(hydroxymethyl)phenyl]-1-piperazinyl]-1-(4-chlorophenyl)-1-propanone], the inhibition in vivo at 20 mg/kg in series [1] (mice) came out at 66%. Besides, the inhibition in vivo at 40 mg/kg in series [1] (40 mg/kg, mice) turned out to be 88%. In addition, the inhibition in vivo at 50 mg/kg in series [1] (50 mg/kg, mice (footnote, 40 mg/kg)) was determined as 98%. Moreover, in series [1] (156 mg/kg, mice (footnote, 125 mg/kg column)), the inhibition in vivo at 156 mg/kg is 99%. Moreover, the “bacterial mutagenicity” value in series [2] (five strains) is recorded as “mutagenic, but much less so than hycanthone”. Besides, the “Mutagenicity TA100” value in series [3] was “+”. The “Mutagenicity TA1537” value in series [4] (with metabolic activation) is recorded as “-”; in series [4] (without metabolic activation), “w+”. The “Mutagenicity TA1535” value in series [5] is listed as “-”. The “Mutagenicity TA98” value in series [6] (with metabolic activation) and in series [6] (without metabolic activation) was “-” each time. Also, the “Mutagenicity TA1538” value in series [7] (with metabolic activation) is reported as “+”; in series [7] (without metabolic activation), “w+”.
